Experimental data: patent EP0717040A1, “Thiazine or thiazepine derivatives which inhibit NOS” (Japan Tobacco Inc., priority 1994, dated 1996)

Key:
[1] = molecular target: T1, constitutive NO synthase (cNOS) (Rattus norvegicus, UniProt P29476); assay: Activity to inhibit constitutive NO synthase (cNOS) derived from rat cerebellum; conversion of [3H]-L-arginine to [3H]-L-citrulline; assay type: biochemical; details: cNOS extracted from rat cerebellum, 10 µM L-arginine, 10 minutes at 25°C; read-out: IC₅₀
T1 construct: cNOS was extracted from a rat cerebellum; from tissue; host or cells: rat cerebellum
Method: Activity to inhibit constitutive NO synthase (cNOS) derived from rat cerebellum
The inhibition activity was tested according to a method of P. A. Bush et al. (Biochem, Biophys, Res. Commun., 185, 960-966 (1992)), using [³H]-L-arginine as a substrate and taking the conversion of [³H]-L-arginine to [³H]-L-citrulline as an index of the enzyme activity.
The test was conducted as follows: First, cNOS was extracted from a rat cerebellum with a 50 mM Tris-HCl buffer solution (pH 7.4) which contains 0.1 mM EDTA (ethylenediamine tetraacetate), 0.1 mM EGTA (ethyleneglycol bis(β-aminoethyl ether)-tetraacetate), 0.5 mM DTT (dithiothreitol), 1 µM PMSF (phenylmethylsulfonyl fluoride), 1 µM bestatin A, and 1 µM leupeptin. To the cNOS thus extracted, a 50 mM Tris-HCl buffer solution (pH 7.4) containing 10 µM L-arginine, 10 µM NADPH, 2 mM calcium chloride and calmoduline (0.1 µg), together with a test compound and [³H]-L-arginine were added. The mixture was incubated for 10 minutes at 25°C. The reaction was terminated by adding 20 mM sodium acetate buffer solution (pH 5.5) containing 1 mM L-citrulline, 2 mM EDTA, and 0.2 mM EGTA. The reaction solution was passed through a cation-exchange resin. This eluate was combined with another eluate which was obtained thereafter by eluting with water. To the combined eluate, a liquid scintillation cocktail was further added and its radioactivity (A) was measured. At the same time, the radioactivity (B) with respect to the case where the test compound was not added and the radioactivity (C) with respect to the case where an enzyme fraction was not added, were respectively measured. Then, the rate of cNOS inhibition was calculated in accordance with the following equation. The concentration (IC₅₀), at which the test compound can inhibit 50 % of the enzyme activity, were also calculated. Inhibition rate (%) = {1 - (A - C/B - C)} × 100 [formula]

[2] = molecular target: inducible NO synthase (iNOS) (Rattus norvegicus, UniProt Q06518); assay: Activity to inhibit inducible NO synthase (iNOS) derived from rat macrophages; conversion of [3H]-L-arginine to [3H]-L-citrulline; assay type: biochemical; set-up: iNOS was extracted from the macrophages which have been treated with lipopolysaccharide and interferon-γ; endogenous in cells; host or cells: rat peritoneal macrophages treated with lipopolysaccharide and interferon-γ; details: iNOS from peritoneal macrophages treated with lipopolysaccharide and interferon-γ, 150 µM L-arginine, 30 minutes at 37°C; read-out: IC₅₀
Method: Activity to inhibit inducible NO synthase (iNOS) derived from rat macrophages
According to partly modified method of Y. Yui et al.(J. Biol. Chem., 266 (19), 12544-12547 (1991)), an iNOS fraction was prepared by applying lipopolysaccharide and interferon-γ to peritoneal macrophages. Thereafter, its enzymatic activity was measured based on the conversion of [³H]-L-arginine to [³H]-L-citrulline, in the same manner as in the case of cNOS.
To the iNOS thus extracted, a 50 mM Tris-HCl buffer solution (pH 7.4) containing 150 µM L-arginine, 5 mM NADPH, 5 mM DTT, 0.5 mM 5,6,7,8-tetrahydro-L-biopterin and 5 µM FAD was added together with a test compound and [³H]-L-arginine. The mixture was incubated for 30 minutes at 37°C. Thereafter, the reaction was terminated by adding a 25 mM sodium acetate buffer solution (pH 5.5) containing 1.25 mM L-citrulline, 2.5 mM EDTA and 0.25 mM EGTA. The reaction solution was passed through a cation-exchange resin. The obtained eluate was combined with the additional eluate obtained thereafter by eluting with water, and the radioactivity of the combined eluate was measured. The inhibition rate of the test compound on iNOS was calculated in the same manner as in Test 1. The concentration (IC₅₀) of the test compound required for inhibiting 50 % of the enzyme activity, were calculated.

[3] = molecular target: T2, neuronal NOS (nNOS) (Rattus norvegicus, UniProt P29476); assay: Effect on rat cerebral ischemia model by nNOS inhibition: permanent occlusion model; assay type: in vivo; details: dose 10µg/kg+1µg/kg/min; intravenous 5 minutes after occlusion, then infused for 6 hours; cerebral infarct area after 24 hours
T2 construct: from tissue; host or cells: living rat (brain)
Excerpt: Effect on rat cerebral ischemia model by neuronal NOS (nNOS) inhibition: permanent occlusion model According to a partly modified method of Tamura et al. (J. Cereb. Blood Flow Matab., 1, 53-60 (1981)), an cerebral ischemia model was established by permanently blocking a rat middle cerebral artery. That is, a rat was anesthetized with laughing gas - oxygen and halothane, and then, a hole was formed at a cranial bone in the periphery of oval foramen, thereby exposing the middle cerebral artery. Subsequently, a middle cerebral artery was clipped and coagulated, thereby established a permanent occlusion model. After 24 hours, a brain was excised out and cerebral infarct area were determined by use of triphenyltetrazolium chloride. A test compound was injected intravenously 5 minutes after the occlusion and subsequently infused for 6 hours. The suppression effect was investigated.

[4] = molecular target: T3, endothelium nitric oxide synthase (eNOS) (Rattus norvegicus, UniProt Q62600); assay: Blood pressure elevating activity in rat by inhibition of eNOS; assay type: in vivo; details: dose to elevate mean blood pressure by 25 mmHg; anesthetized rat, administered via femoral vein
T3 construct: from tissue; host or cells: living anesthetized rat
Method: Blood pressure elevating activity in rat by inhibition of endothelium nitric oxide synthase (eNOS) A rat was anesthetized with by peritoneal injection of sodium barbital (300 mg/kg) and catheters were inserted into a femoral artery and a femoral vein. Blood pressure was measured through the catheter inserted in the femoral artery and a test compound was administered through the catheter inserted in the femoral vein. […]

IC50 [1]: 20 nM | IC50 [2]: 10 nM | Suppression Effect [3]: ○ (10µg/kg+1µg/kg/min)
SMILES: CCC[C@@H]1CCSC(N)=N1.Cl [Example 31, (R)-2-amino-5,6-dihydro-4-propyl-4H-1,3-thiazine hydrochloride]
ED₂₅ [4]: 0.46 mg/kg
